Assays:
[1] = test system: human olfactory neuroepithelial cells (ONCs); assay: Western blot analysis of human ONCs (OMP, Golf, βIII tubulin); type: cell-based; conditions: 0.1 mg/ml monosaccharide monomer, day 9
Description: Human olfactory neuroepithelia were harvested from adult olfactory neuroepithelium during endoscopic sinus surgery. Biopsy specimens were transferred into Hank's balanced salt solution (HBSS), minced finely, and then digested with 0.125% Trypsin/EDTA for 30 minutes at 37° C. After digestion, the pellet was collected by centrifuge and resuspended in the iscove's modified dulbecco's media (IMDM; Invitrogen, Calif., USA) with 10% fetal bovine serum and 1% penicillin/streptomycin Finally, they were seeded to six-wells coated with laminin-co-fibronectin for 21 days, incubated in a humidified atmosphere containing 5% CO2 and 95% air. After 21 days, the medium were changed with induction medium. This induction medium is Dulbecco's Modified Eagle Medium: Nutrient Mixture F-12 (DMEM/F12) (Invitrogen, Calif., USA) supplemented with 2% B-27 serum-free supplement. To prepare the chitosan-containing medium for administration groups, chitosan (C-3646, Sigma-Aldrich, St. Louis, Mo.) was mixed with induction medium (0.1 mg/ml), and adjusted to pH 7.2 with NaOH.
ONC lysates were obtained from individual culture wells using a RIPA lysis buffer containing protease inhibitor cocktail tablets (Roche Diagnostics GmbH). […] Images of western blotting were acquired by UVP BioSpectrum 810, and analyzed by Vision Works LS software (UVP, California, USA). […]

[2] = test system: rat olfactory neuroepithelial cells (ONCs); assay: Western blot analysis of rat ONCs (βIII tubulin, OMP, Golf, ADCY3 relative to GAPDH); type: cell-based; conditions: day 9
Description: Olfactory neuroepithelia of rats were isolated from E17 embryos of wistar rats and 40 embryos per trial were used. After isolation, olfactory neuroepithelia were digested in Hanks' balanced salt solution (Roche Molecular Biochemicals, Indianapolis, Ind., USA) containing 0.125% Trypsin/EDTA for 30 minutes at 37° C. The cell suspension was then filtered through a 70 μm cell strainer to eliminate cell aggregates and debris, and adjusted to 24×10^4 cells/mL (equivalent to 5×10^4 cells/cm^2). Finally, a 2 mL cell suspension was added to six-wells coated with 0.85 μg/cm^2 poly-L-lysine (PLL). ONCs were cultured at 37° C. in a humidified 5% CO2 and 95% air atmosphere. Cell morphology was observed under an inverse phase contrast microscope (TS-100, Nikon, Tokyo, Japan) and scanning electron microscope (Hitachi S-4800).
ONC medium comprised DMEM/F12 (Invitrogen), 20 ng/mL bFGF, 20 ng/mL EGF, 2% B27 and 1% penicillin/streptomycin. To prepare the chitosan-containing medium for administration groups, chitosan (C-3646, Sigma, St. Louis, Mo.) was mixed with culture medium (0.1 mg/mL), and adjusted to pH 7.2 with NaOH. Particularly, chitosan solution was prepared by dissolving chitosan in 0.5 M acetic acid.
ONC lysates were obtained from individual culture wells using a RIPA lysis buffer containing protease inhibitor cocktail tablets (Roche Diagnostics GmbH). These samples were then denatured and separated by 12% SDS-PAGE gels, and blotted onto PVDF membranes (Millipore). After blocking in a CIS blocking buffer at room temperature for 60 seconds, the membranes were probed with various primary antibodies at 4° C. overnight. Membranes were incubated with horseradish peroxidase-conjugated secondary antibodies for 1.5 hours, and finally visualized using enhanced chemiluminescence (ECL; Millipore, Billerica, Mass.). After detachment of previous primary antibodies, the membranes were also probed with GAPDH antibodies, which served as an internal control. Images of western blotting were acquired by UVP BioSpectrum 810, and analyzed by Vision Works LS software (UVP, California, USA).
All the measurements were presented as mean±SD. Statistical significance was computed with one-way ANOVA followed by LSD test with p<0.05. All statistical analyses were conducted using Sigma plot v12.5.

[3] = 0.1 mg/ml monosaccharide monomer

Row | Compound | expression levels of OMP [1] | expression levels of OMP and Golf [2, 3] | expression levels of OMP and Golf ([2]; 0.1 mg/ml proteoglycan or glycosaminoglycan)
1 | CC(=O)N[C@H]1C(O)O[C@H](CO)[C@H](O)[C@@H]1O (stereo partly shown) [GalNAc, N-acetylgalactosamine] | induced positive effects on human ONCs | promoted the maturation of ORNs | 
2 | N[C@H]1C(O)O[C@H](CO)[C@@H](O)[C@@H]1O (stereo partly shown) [GlcN, glucosamine] |  | promoted the maturation of ORNs | 
3 | CC(=O)N[C@H]1C(O)O[C@H](CO)[C@@H](O)[C@@H]1O (stereo partly shown) [GlcNAc, N-acetylglucosamine] |  | promoted the maturation of ORNs | 
4 | CC(=O)N[C@@H]1C(O)O[C@H](CO)[C@@H](O)[C@@H]1O (stereo partly drawn) [ManNAc, N-acetyl-D-mannosamine] | induced positive effects on human ONCs | promoted the maturation of ORNs | 
5 | heparan sulfate proteoglycan [HSPG] |  |  | promoted expression of mature and functional ORNs
